Values after ≈ are worked out from the molar mass of the structure shown.
Experiments:
Plasma Stability = type: in vitro ADME
Experimental: Plasma Stability: Procedure: […] Plasma was warmed to 37° C. prior to the experiment and centrifuged for 5 mins at 4000 rpm. […] Each time point was monitored in triplicate (0, 10, 30, 60 and 120 min). 4 uL/well aliquot of the working solution was mixed to the blank plasma and incubated at 37° C. AT each time point samples were quenched with ACN stop solution containing 200 ng/ml Tolbutamide & 200 ng/ml Labetalol at 1:3 ratio and mix well on shaker for 10 min then centrifuge at 4000 rpm for 15 min. A 100 ul aliquot of supernatant was mixed with 100 μL of ultra-pure and submitted for LC-MS/MS analysis.

[1] = Liver Microsome stability (In Vitro Metabolism); type: in vitro ADME; details: for Remaining (T = NCF60 min): no cofactor 60 min
Experimental: Working Compound solution: 10 uM in 50 mM potassium phosphate buffer with 9% MeOH and 1% DMSO
Microsome solution: working concentration 0.625 mg/ml
Stopping solution: Cold ACN with 200 ng/ml Tolbutamide and 200 ng/ml Labetalol (4° C.)
Procedure: In the well plates (T5, T10, T20, T30, T60, NCF60 (no cofactor 60)) 10 uL of the compound/control working solution was added (except T0 and matric blank) followed by microsome solution (80 uL) and the mixture was incubated at 37 C for about 10 mins. A solution of potassium phosphate (10 ul of 50 mM) was added to NCF60 well, incubated at 37 C and time counting started. After prewarming 10 ul of NADPH regenerating solution was added to each plate to start the reaction. At different time point 300 uL/well of stopping solution to terminate the reaction. The sampling plates were shaken for 10 mins and the centrifuged for 20 mins at 4000 rpm. The supernatant was half diluted with ultra pure water and the analyzed using LCMS.

C. albicans SN250 = assay: MIC; type: cell-based, Candida albicans
C. krusei = assay: MIC; type: cell-based
C. tropicalis = assay: MIC; type: cell-based
A. fumigatus 1163 = assay: MIC; type: cell-based
[2] = tested on: C. albicans SN250, C. albicans, C. krusei, C. glabrata, C. tropicalis, A. fumigatus 91, 1163, 1100; assay: Average MIC over the tested strains; type: cell-based; parameters: Avg. MIC of AmB amide: unit not given here; details: for Avg. MIC of AmB amide: value of the corresponding C16 amide of AmB, not of the C2’epi compound
A. fumigatus 1100 = assay: MIC; type: cell-based
C. glabrata = assay: MIC; type: cell-based
[3] = Tables 8 and 9, average over the 8 listed strains
[4] = Table 12, C16 amides of C2'epiAmB

## COC(=O)C(Cc1c[nH]cn1)NC(=O)C1C(O)CC2(O)CC(O)CC(O)C(O)CCC(O)CC(O)CC(=O)OC(C)C(C)C(O)C(C)C=CC=CC=CC=CC=CC=CC=CC(OC3OC(C)C(O)C(N)C3O)CC1O2 (centres unmarked) [AL]
Plasma Stability; Human Plasma
  % Remaining at 120 min: 107%
  Half Life: >4.82 h
Plasma Stability; Rat Plasma
  % Remaining at 120 min: 111%
  Half Life: >4.82 h
[1]; Dog liver microsomes
  CL: <9.6 µL/min/mg
  CLint: <14 mL/min/kg
  Remaining (T = 60 min): 101%
  T1/2: >2.42 h
  Remaining (T = NCF60 min): 87.1%
[1]; Human liver microsomes
  CL: <9.6 µL/min/mg
  CLint: <8.6 mL/min/kg
  Remaining (T = 60 min): 113%
  T1/2: >2.42 h
  Remaining (T = NCF60 min): 96.8%
[1]; Monkey liver microsomes
  CL: <9.6 µL/min/mg
  CLint: <14 mL/min/kg
  Remaining (T = 60 min): 107%
  T1/2: >2.42 h
  Remaining (T = NCF60 min): 106%
[1]; Mouse liver microsomes
  CL: <9.6 µL/min/mg
  CLint: <38 mL/min/kg
  Remaining (T = 60 min): 127%
  T1/2: >2.42 h
  Remaining (T = NCF60 min): 139%
[1]; Rat liver microsomes
  CL: <9.6 µL/min/mg
  CLint: <17 mL/min/kg
  Remaining (T = 60 min): 132%
  T1/2: >2.42 h
  Remaining (T = NCF60 min): 75.4%

## CC1C=CC=CC=CC=CC=CC=CC=CC(OC2OC(C)C(O)C(N)C2O)CC2OC(O)(CC(O)CC(O)C(O)CCC(O)CC(O)CC(=O)OC(C)C(C)C1O)CC(O)C2C(=O)NCCN (centres unmarked) [AM]
Plasma Stability; Human Plasma
  % Remaining at 120 min: 102%
  Half Life: >4.82 h
Plasma Stability; Rat Plasma
  % Remaining at 120 min: 118%
  Half Life: >4.82 h
[1]; Dog liver microsomes
  CL: <9.6 µL/min/mg
  CLint: <14 mL/min/kg
  Remaining (T = 60 min): 107%
  T1/2: >2.42 h
  Remaining (T = NCF60 min): 109%
[1]; Human liver microsomes
  CL: <9.6 µL/min/mg
  CLint: <8.6 mL/min/kg
  Remaining (T = 60 min): 101%
  T1/2: >2.42 h
  Remaining (T = NCF60 min): 115%
[1]; Monkey liver microsomes
  CL: <9.6 µL/min/mg
  CLint: <13 mL/min/kg
  Remaining (T = 60 min): 113%
  T1/2: >2.42 h
  Remaining (T = NCF60 min): 121%
[1]; Mouse liver microsomes
  CL: <9.6 µL/min/mg
  CLint: <38 mL/min/kg
  Remaining (T = 60 min): 109%
  T1/2: >2.42 h
  Remaining (T = NCF60 min): 176%
[1]; Rat liver microsomes
  CL: <9.6 µL/min/mg
  CLint: <17 mL/min/kg
  Remaining (T = 60 min): 113%
  T1/2: >2.42 h
  Remaining (T = NCF60 min): 83.1%

## CNC(=O)C1C(O)CC2(O)CC(O)CC(O)C(O)CCC(O)CC(O)CC(=O)OC(C)C(C)C(O)C(C)C=CC=CC=CC=CC=CC=CC=CC(OC3OC(C)C(O)C(N)C3O)CC1O2 (centres unmarked) [AN]
Plasma Stability; Human Plasma
  % Remaining at 120 min: 106%
  Half Life: >4.82 h
Plasma Stability; Rat Plasma
  % Remaining at 120 min: 118%
  Half Life: >4.82 h
[1]; Dog liver microsomes
  CL: <9.6 µL/min/mg
  CLint: <14 mL/min/kg
  Remaining (T = 60 min): 92.4%
  T1/2: >2.42 h
  Remaining (T = NCF60 min): 113%
[1]; Human liver microsomes
  CL: <9.6 µL/min/mg
  CLint: <8.6 mL/min/kg
  Remaining (T = 60 min): 104%
  T1/2: >2.42 h
  Remaining (T = NCF60 min): 127%
[1]; Monkey liver microsomes
  CL: <9.6 µL/min/mg
  CLint: <13 mL/min/kg
  Remaining (T = 60 min): 139%
  T1/2: >2.42 h
  Remaining (T = NCF60 min): 135%
[1]; Mouse liver microsomes
  CL: <9.6 µL/min/mg
  CLint: <38 mL/min/kg
  Remaining (T = 60 min): 102%
  T1/2: >2.42 h
  Remaining (T = NCF60 min): 131%
[1]; Rat liver microsomes
  CL: <9.6 µL/min/mg
  CLint: <17 mL/min/kg
  Remaining (T = 60 min): 106%
  T1/2: >2.42 h
  Remaining (T = NCF60 min): 93%

## CC1C=CC=CC=CC=CC=CC=CC=CC(OC2OC(C)C(O)C(N)C2O)CC2OC(O)(CC(O)CC(O)C(O)CCC(O)CC(O)CC(=O)OC(C)C(C)C1O)CC(O)C2C(=O)NC1CCC1 (centres unmarked) [AR4]
C. albicans SN250
  MIC C. albicans SN250: 500 µM (≈ 489 µg/mL)
C. krusei
  MIC C. krusei: 550 µM (≈ 537 µg/mL)
C. tropicalis
  MIC C. tropicalis: 500 µM (≈ 489 µg/mL)
A. fumigatus 1163
  MIC A. fumigatus 1163: 1000 µM (≈ 977 µg/mL)
[2]; [3]
  Average MIC: 750 µM

## CC1C=CC=CC=CC=CC=CC=CC=CC(OC2OC(C)C(O)C(N)C2O)CC2OC(O)(CC(O)CC(O)C(O)CCC(O)CC(O)CC(=O)OC(C)C(C)C1O)CC(O)C2C(=O)NC1CCCC1 (centres unmarked) [AR5]
C. albicans SN250
  MIC C. albicans SN250: 500 µM (≈ 496 µg/mL)
A. fumigatus 1100
  MIC A. fumigatus 1100: 1500 µM (≈ 1490 µg/mL)
C. krusei
  MIC C. krusei: 500 µM (≈ 496 µg/mL)
C. tropicalis
  MIC C. tropicalis: 500 µM (≈ 496 µg/mL)
[2]; [3]
  Average MIC: 1063 µM

## CC1C=CC=CC=CC=CC=CC=CC=CC(OC2OC(C)C(O)C(N)C2O)CC2OC(O)(CC(O)CC(O)C(O)CCC(O)CC(O)CC(=O)OC(C)C(C)C1O)CC(O)C2C(=O)NC1CCCCC1 (centres unmarked) [AR6]
C. albicans SN250
  MIC C. albicans SN250: 500 µM (≈ 503 µg/mL)
A. fumigatus 1100
  MIC A. fumigatus 1100: 1500 µM (≈ 1510 µg/mL)
C. glabrata
  MIC C. glabrata: 750 µM (≈ 754 µg/mL)
C. tropicalis
  MIC C. tropicalis: 500 µM (≈ 503 µg/mL)
A. fumigatus 1163
  MIC A. fumigatus 1163: 1000 µM (≈ 1010 µg/mL)
[2]; [3]
  Average MIC: 891 µM

## CC1C=CC=CC=CC=CC=CC=CC=CC(OC2OC(C)C(O)C(N)C2O)CC2OC(O)(CC(O)CC(O)C(O)CCC(O)CC(O)CC(=O)OC(C)C(C)C1O)CC(O)C2C(=O)NC1CCCCCC1 (centres unmarked) [AR7]
C. glabrata
  MIC C. glabrata: 2000 µM (≈ 2040 µg/mL)
C. krusei
  MIC C. krusei: 1000 µM (≈ 1020 µg/mL)
[2]; [3]
  Average MIC: 1469 µM

## CC1C=CC=CC=CC=CC=CC=CC=CC(OC2OC(C)C(O)C(N)C2O)CC2OC(O)(CC(O)CC(O)C(O)CCC(O)CC(O)CC(=O)OC(C)C(C)C1O)CC(O)C2C(=O)NC1CCCCCCCCC1 (centres unmarked) [AR-10]
C. albicans SN250
  MIC C. albicans SN250: 1000 µM (≈ 1060 µg/mL)
C. glabrata
  MIC C. glabrata: 2000 µM (≈ 2120 µg/mL)
C. krusei
  MIC C. krusei: 1000 µM (≈ 1060 µg/mL)
[2]; [3]
  Average MIC: 2250 µM

## CC1C=CC=CC=CC=CC=CC=CC=CC(OC2OC(C)C(O)C(N)C2O)CC2OC(O)(CC(O)CC(O)C(O)CCC(O)CC(O)CC(=O)OC(C)C(C)C1O)CC(O)C2C(=O)NCCC#N (centres unmarked) [BO]
C. tropicalis
  MIC C. tropicalis: 500 µM (≈ 488 µg/mL)
A. fumigatus 1163
  MIC A. fumigatus 1163: 1500 µM (≈ 1460 µg/mL)
[2]; [4]
  Average MIC: 1.188 µM
[2]
  Avg. MIC of AmB amide: 0.42

## CC1C=CC=CC=CC=CC=CC=CC=CC(OC2OC(C)C(O)C(N)C2O)CC2OC(O)(CC(O)CC(O)C(O)CCC(O)CC(O)CC(=O)OC(C)C(C)C1O)CC(O)C2C(=O)NC1COCC1O (centres unmarked) [BR]
C. tropicalis
  MIC C. tropicalis: 500 µM (≈ 505 µg/mL)
[2]; [4]
  Average MIC: 1.688 µM
[2]; Table 13, C16 amides of C2’epiAmB
  Average MIC: 1250 µM
[2]
  Avg. MIC of AmB amide: 0.38

## CNC(=O)CNC(=O)C1C(O)CC2(O)CC(O)CC(O)C(O)CCC(O)CC(O)CC(=O)OC(C)C(C)C(O)C(C)C=CC=CC=CC=CC=CC=CC=CC(OC3OC(C)C(O)C(N)C3O)CC1O2 (centres unmarked) [GN]
[2]; Table 7, C16 amide AmB variants
  MIC (Average Minimum Inhibition Concentration): 0.344 µM

Reference: US20230016424A1, “HYBRID AMIDE DERIVATIVES OF AMPHOTERICIN B” (The Board of Trustees of the University of Illinois, priority 2019, published 2023)
